{"source": "patent US8871818B2", "about": "“Gastrointestinal absorption enhancer mediated by proton-coupled transporter and its preparing method” (Otsuka Pharmaceutical Co., Ltd., priority 2003, dated 2014)", "key": {"Caco-2 cells": {"test_system": "Caco-2 cells", "assay": "Cellular uptake into Caco-2 cells under various pH conditions (pH profile)", "assay_type": "in vitro ADME, human", "conditions": "2 mM, uptake over 15 minutes", "description": "To investigate the effect of extracellular fluid on the cellular uptake of dipeptides and β-lactam antibiotics transported by PEPT1, the cellular uptake of dipeptides, i.e., [^14C]glycylsarcosine ([^14C]GlySar) and [^3H]carnosine, and β-lactam antibiotics, i.e., cefadroxil (CDX), cefixime (CFIX), and FK089, was evaluated at pH 5.0 to 7.0 using gastrointestinal tract model cells (Caco-2 cells).\nCells cultured on 4-well plates were rinsed 3 times with 1 mL Hanks' balanced salt solution (HBSS: 0.952 mM CaCl2, 5.36 mM KCl, 0.441 mM KH2PO4, 0.812 mM MgSO4, 136.7 mM NaCl, 0.385 mM Na2HPO4, 25 mM D-glucose, 10 mM HEPES; pH 7.4; osmotic pressure 315 mOs/kg) heated to 37° C., and uptake was initiated by adding 250 μL HBSS containing medical fluid. Uptake was terminated at a predetermined period of time by washing the cells 3 times with 1 mL ice-cooled HBSS. […] The medicaments contained in the solution extracted from the cells were quantified by a liquid scintillation counter or liquid chromatography (HPLC). Proteins contained in the cells were quantified using a protein assay kit (Bio-Rad, Richmond, Calif., USA) according to the Bradford assay (Bradford, M. M. “A Rapid and Sensitive Method for the Quantitation of Microgram Quantities of Protein Utilizing the Principle of Protein-Dye Binding”. Anal. Biochem. 72 (1976): 248-254). […]"}, "rat ileum": {"test_system": "rat ileum", "assay": "Absorption in rat intestinal loop, in situ closed loop method", "assay_type": "in vivo", "conditions": "20 minutes, CDX 1 mM or CFIX 0.5 mM in MES buffer pH 6.0", "description": "For example, rats are anesthetized by intraperitoneally administering pentobarbital sodium (50 mg/kg). Then, laparotomy is performed along the median line to expose the intestinal tract, and a loop is formed at the ileum (e.g., FIG. 6). MES buffer containing medical fluid and a polymer (5 mM KCl, 100 mM NaCl, 10 mM 2-(N-morpholino)ethanesulfonic acid (MES), 85 mM mannitol, 0.01% polyethylene glycol; pH 6.0; osmotic pressure 290 mOs/kg) is introduced into the intestinal loop and both ends of the loop are ligated. Subsequently, the intestinal loop is immediately returned to the abdominal cavity. An incandescent lamp is used to maintain the body temperature. The solution inside the intestinal loop is retrieved 20 minutes after its administration. The pH was measured by pH-meter. The amount of medicaments are measured by HPLC.\nThe oral composition of the invention was prepared by adding a β-lactam antibiotic (CDX or CFIX) to 10 mM MES buffer (pH 6.0) such that the buffer contained CDX in an amount of 1 mM or CFIX in an amount of 0.5 mM, and further adding Eudragit L100-55 to the buffer so that it contained in a proportion of 10 or 20 wt. % based on the amount of the entire oral composition. A β-lactam antibiotic solution containing no Eudragit L100-55 was prepared as a control.\nThese compositions were administered into the intestinal loops prepared at the caecum junction of SD male rats (junction between the terminal of the ileum and where the caecum starts) to a distance of 14 cm toward the stomach. The solution remaining in the intestinal loops was retrieved 20 minutes after administration. The concentration of β-lactam antibiotic in the retrieved solution was measured by HPLC, and pH of the retrieved solution was measured using a pH meter. Absorbability was evaluated according to the decrease in the concentration of β-lactam antibiotic in the retrieved solution in comparison with the concentration thereof in the solution administered."}, "[1]": {"assay": "Plasma concentration of CFIX after oral administration to rats with polymer and/or CDX", "assay_type": "in vivo", "conditions": "male, SD, rat, CFIX 2.3 mg/kg, polymer 500 mg/kg", "description": "To investigate whether absorption of orally-administered peptidergic compounds in rats is improved by controlling gastrointestinal pH using pH-sensitive polymers, the time course of the plasma concentration of CFIX was examined after orally administering the peptidergic compound CFIX in combination with a pH-sensitive polymer (Eudragit L100-55) or pH-insensitive polymer (Eudragit RS PO).\nThe oral composition of the invention was prepared by adding Eudragit L100-55 to an aqueous solution of CFIX (0.23 mg/mL) such that the solution contained Eudragit L100-55 in a proportion of 5 wt. % based on the amount of the entire oral composition. A CFIX solution containing no Eudragit L100-55 was prepared as a control. These compositions were orally administered to SD male rats (body weight: 190 to 220 g) fasted for an entire day and night such that CFIX was given in a dose of 2.3 mg/kg. Blood was collected 15 to 480 minutes after administration, and the plasma concentration of CFIX was measured by HPLC. Based on the plasma concentration profile of CFIX thus obtained, the area under the plasma drug concentration-time curve (AUC) and highest drug concentration observed in plasma following administration of an extravascular dose (Cmax) were obtained.\nPlots (◯) represent absorption of CFIX in the absence of a polymer, plots (●) represent absorption of CFIX in the presence of Eudragit L100-55 (500 mg/kg), and plots (□) represent absorption of CFIX in the presence of Eudragit RS PO (500 mg/kg). Each plot represents the mean±standard error of 5 experiments.\nThe experimental procedure was as described in Example 4 except that CDX was simultaneously administered.\nFIG. 5 depicts the influence of CDX on the oral administration profile of CFIX after administering the composition (CFIX: 2.3 mg/kg) to rats. Plots (●) represent absorption of CFIX when Eudragit L100-55 (500 mg/kg) and 0 mM CDX were used, plots (▴) represent absorption of CFIX when Eudragit L100-55 (500 mg/kg) and 2 mM CDX were used, and plots (▪) represent absorption of CFIX when Eudragit L100-55 (500 mg/kg) and 10 mM CDX were used. […]"}}}
{"smiles": "CC1=C(C(=O)O)N2C(=O)[C@@H](NC(=O)[C@H](N)c3ccc(O)cc3)[C@H]2SC1", "note": "[CDX, cefadroxil]", "values": [{"measurement": "pH of optimum uptake into Caco-2 cells", "setting": "Caco-2 cells; pH 5.0 to 7.0", "value": 6.0}, {"measurement": "absorption from rat intestinal loop", "setting": "rat ileum; no Eudragit L100-55", "value": "about 40%"}, {"measurement": "absorption from rat intestinal loop", "setting": "rat ileum; with Eudragit L100-55 20 wt. %", "value": "about 80%"}]}
{"smiles": "C=CC1=C(C(=O)O)N2C(=O)[C@@H](NC(=O)/C(=N\\OCC(=O)O)c3csc(N)n3)[C@H]2SC1", "note": "[CFIX, cefixime]", "values": [{"measurement": "cellular uptake when pH of extracellular fluid is decreased from 6.0 to 5.0", "setting": "Caco-2 cells; Caco-2 cells", "value": "greatly enhanced"}, {"measurement": "absorption from rat intestinal loop", "setting": "rat ileum; no Eudragit L100-55", "value": "hardly absorbed"}, {"measurement": "absorption from rat intestinal loop", "setting": "rat ileum; with Eudragit L100-55 20 wt. %", "value": "about 35%"}, {"measurement": "Cmax", "setting": "[1]", "value": "4130 ± 500", "unit": "ng/mL"}, {"measurement": "Tmax", "setting": "[1]", "value": "43.2 ± 12", "unit": "min"}, {"measurement": "AUC(0-t)", "setting": "[1]; read-out: AUC0-8h of CFIX", "value": "10800 ± 1480", "unit": "ng·h/mL"}]}
